In the kinase profiling compilation of Christmann-Franck et al. (2016):

Columns and labels:
Assay in all cases: KINOMEscan competition binding
Conditions in all cases: compound 10.0 µM
MKNK1 (human) = MKNK1 (human) (UniProt Q9BUB5)
STK17B (human) = STK17B (human) (UniProt O94768)
[1] = tested on: KIT (human), P10721 [D816V]
CSNK1G3 (human) = CSNK1G3 (human) (UniProt Q9Y6M4)
[2] = tested on: FLT3 (human), P36888 [D835H]
RIOK2 (human) = RIOK2 (human) (UniProt Q9BVS4)
PDGFRB (human) = PDGFRB (human) (UniProt P09619)
MAP4K2 (human) = MAP4K2 (human) (UniProt Q12851)
MYLK4 (human) = MYLK4 (human) (UniProt Q86YV6)
DAPK2 (human) = DAPK2 (human) (UniProt Q9UIK4)
[3] = target: JAK1 JH2 pseudokinase (human) (UniProt P23458)
[4] = target: JAK3 JH1 catalytic (human) (UniProt P52333)
PIM1 (human) = PIM1 (human) (UniProt P11309)
RPS6KA6 KD2 (human) = RPS6KA6 KD2 (human) (UniProt Q9UK32)
CSNK1D (human) = CSNK1D (human) (UniProt P48730)
MAP2K3 (human) = MAP2K3 (human) (UniProt P46734)
NEK2 (human) = NEK2 (human) (UniProt P51955)
CAMKK1 (human) = CAMKK1 (human) (UniProt Q8N5S9)
FLT3 (human) = FLT3 (human) (UniProt P36888)
CSNK1G1 (human) = CSNK1G1 (human) (UniProt Q9HCP0)
ULK2 (human) = ULK2 (human) (UniProt Q8IYT8)
CLK3 (human) = CLK3 (human) (UniProt P49761)
CAMKK2 (human) = CAMKK2 (human) (UniProt Q96RR4)
MYLK3 (human) = MYLK3 (human) (UniProt Q32MK0)
TTK (human) = TTK (human) (UniProt P33981)
DYRK1B (human) = DYRK1B (human) (UniProt Q9Y463)
MYLK (human) = MYLK (human) (UniProt Q15746)
MAP4K4 (human) = MAP4K4 (human) (UniProt O95819)
PLK4 (human) = PLK4 (human) (UniProt O00444)
PIM2 (human) = PIM2 (human) (UniProt Q9P1W9)
RIPK4 (human) = RIPK4 (human) (UniProt P57078)
STK17A (human) = STK17A (human) (UniProt Q9UEE5)
MELK (human) = MELK (human) (UniProt Q14680)
HIPK1 (human) = HIPK1 (human) (UniProt Q86Z02)
RIPK2 (human) = RIPK2 (human) (UniProt O43353)
[5] = tested on: EGFR (human), P00533 [G719S]
PIP5K1A (human) = PIP5K1A (human) (UniProt Q99755)
KIT (human) = KIT (human) (UniProt P10721)
STK16 (human) = STK16 (human) (UniProt O75716)
MAP3K5 (human) = MAP3K5 (human) (UniProt Q99683)
ACVR1 (human) = ACVR1 (human) (UniProt Q04771)
[6] = tested on: KIT (human), P10721 [V559D/T670I]

PLK4 (human), sequence (O00444 whole entry, looked up): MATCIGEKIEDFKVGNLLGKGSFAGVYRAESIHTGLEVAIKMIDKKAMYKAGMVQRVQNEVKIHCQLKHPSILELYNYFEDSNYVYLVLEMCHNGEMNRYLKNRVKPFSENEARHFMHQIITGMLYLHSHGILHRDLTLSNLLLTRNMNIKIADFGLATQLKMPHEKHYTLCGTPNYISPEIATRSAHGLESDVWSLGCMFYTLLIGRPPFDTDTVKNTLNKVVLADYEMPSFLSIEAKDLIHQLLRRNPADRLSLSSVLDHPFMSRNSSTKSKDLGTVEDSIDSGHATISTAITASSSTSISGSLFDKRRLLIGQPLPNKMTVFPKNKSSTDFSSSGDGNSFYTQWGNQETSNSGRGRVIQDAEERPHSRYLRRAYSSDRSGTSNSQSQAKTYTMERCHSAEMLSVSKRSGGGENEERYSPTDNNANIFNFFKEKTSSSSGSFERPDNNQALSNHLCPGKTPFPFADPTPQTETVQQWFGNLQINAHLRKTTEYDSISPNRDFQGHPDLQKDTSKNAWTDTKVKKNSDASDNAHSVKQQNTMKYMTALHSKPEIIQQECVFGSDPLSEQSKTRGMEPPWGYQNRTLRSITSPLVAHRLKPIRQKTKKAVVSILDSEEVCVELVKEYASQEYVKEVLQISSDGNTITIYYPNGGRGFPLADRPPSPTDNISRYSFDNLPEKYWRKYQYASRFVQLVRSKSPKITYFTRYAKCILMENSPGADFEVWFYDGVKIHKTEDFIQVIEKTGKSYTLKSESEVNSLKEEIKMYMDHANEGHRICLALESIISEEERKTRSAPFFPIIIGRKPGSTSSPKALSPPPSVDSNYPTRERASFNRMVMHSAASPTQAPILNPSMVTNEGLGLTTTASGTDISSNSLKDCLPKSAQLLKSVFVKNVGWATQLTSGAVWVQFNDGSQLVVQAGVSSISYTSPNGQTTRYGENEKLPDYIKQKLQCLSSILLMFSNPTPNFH
ACVR1 (human), sequence (Q04771 whole entry, looked up): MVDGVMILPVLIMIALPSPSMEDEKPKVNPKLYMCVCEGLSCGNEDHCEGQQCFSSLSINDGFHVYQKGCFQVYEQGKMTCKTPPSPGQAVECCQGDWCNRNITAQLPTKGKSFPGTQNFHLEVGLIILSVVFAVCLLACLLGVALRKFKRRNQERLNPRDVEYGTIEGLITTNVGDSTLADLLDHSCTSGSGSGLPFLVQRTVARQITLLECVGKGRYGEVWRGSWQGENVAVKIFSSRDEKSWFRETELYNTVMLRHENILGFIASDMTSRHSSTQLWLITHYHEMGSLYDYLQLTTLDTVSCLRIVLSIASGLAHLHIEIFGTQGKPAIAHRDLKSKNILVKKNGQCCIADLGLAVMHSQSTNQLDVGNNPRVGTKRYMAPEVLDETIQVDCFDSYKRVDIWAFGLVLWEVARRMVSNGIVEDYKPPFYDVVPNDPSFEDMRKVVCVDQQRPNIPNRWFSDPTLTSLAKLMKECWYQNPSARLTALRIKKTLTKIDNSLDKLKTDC
MYLK4 (human), sequence (Q86YV6 whole entry, looked up): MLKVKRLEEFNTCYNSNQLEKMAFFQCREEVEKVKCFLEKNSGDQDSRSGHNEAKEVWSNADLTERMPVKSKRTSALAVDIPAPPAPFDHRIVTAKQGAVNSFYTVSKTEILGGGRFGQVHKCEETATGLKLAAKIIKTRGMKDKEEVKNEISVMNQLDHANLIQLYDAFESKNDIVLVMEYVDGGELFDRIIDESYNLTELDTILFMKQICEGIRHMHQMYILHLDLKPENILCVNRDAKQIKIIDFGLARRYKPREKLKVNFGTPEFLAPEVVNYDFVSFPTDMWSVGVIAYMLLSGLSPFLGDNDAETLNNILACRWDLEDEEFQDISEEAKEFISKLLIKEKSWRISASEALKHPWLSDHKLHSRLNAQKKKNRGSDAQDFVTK
RIPK4 (human), sequence (P57078 whole entry, looked up): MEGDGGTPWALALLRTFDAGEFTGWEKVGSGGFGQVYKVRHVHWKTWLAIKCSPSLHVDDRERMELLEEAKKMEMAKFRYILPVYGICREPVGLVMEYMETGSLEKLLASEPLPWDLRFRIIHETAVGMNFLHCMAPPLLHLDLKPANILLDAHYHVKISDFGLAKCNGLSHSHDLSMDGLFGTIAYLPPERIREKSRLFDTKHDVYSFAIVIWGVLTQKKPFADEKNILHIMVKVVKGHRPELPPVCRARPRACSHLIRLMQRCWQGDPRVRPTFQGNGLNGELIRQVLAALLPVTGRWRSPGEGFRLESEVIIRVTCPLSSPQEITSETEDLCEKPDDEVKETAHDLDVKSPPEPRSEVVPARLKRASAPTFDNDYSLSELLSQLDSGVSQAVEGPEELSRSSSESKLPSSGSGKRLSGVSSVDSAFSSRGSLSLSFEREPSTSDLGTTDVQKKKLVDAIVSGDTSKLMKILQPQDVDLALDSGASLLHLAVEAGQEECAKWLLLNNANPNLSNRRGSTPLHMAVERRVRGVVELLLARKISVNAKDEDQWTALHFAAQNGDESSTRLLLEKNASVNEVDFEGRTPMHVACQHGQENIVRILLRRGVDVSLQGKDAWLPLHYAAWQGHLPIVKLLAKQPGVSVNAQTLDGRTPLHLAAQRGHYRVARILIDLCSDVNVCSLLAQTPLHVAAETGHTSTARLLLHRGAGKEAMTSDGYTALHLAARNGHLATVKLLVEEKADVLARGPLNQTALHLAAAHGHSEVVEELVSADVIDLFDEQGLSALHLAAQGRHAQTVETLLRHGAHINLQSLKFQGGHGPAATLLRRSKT
CAMKK2 (human), sequence (Q96RR4 whole entry, looked up): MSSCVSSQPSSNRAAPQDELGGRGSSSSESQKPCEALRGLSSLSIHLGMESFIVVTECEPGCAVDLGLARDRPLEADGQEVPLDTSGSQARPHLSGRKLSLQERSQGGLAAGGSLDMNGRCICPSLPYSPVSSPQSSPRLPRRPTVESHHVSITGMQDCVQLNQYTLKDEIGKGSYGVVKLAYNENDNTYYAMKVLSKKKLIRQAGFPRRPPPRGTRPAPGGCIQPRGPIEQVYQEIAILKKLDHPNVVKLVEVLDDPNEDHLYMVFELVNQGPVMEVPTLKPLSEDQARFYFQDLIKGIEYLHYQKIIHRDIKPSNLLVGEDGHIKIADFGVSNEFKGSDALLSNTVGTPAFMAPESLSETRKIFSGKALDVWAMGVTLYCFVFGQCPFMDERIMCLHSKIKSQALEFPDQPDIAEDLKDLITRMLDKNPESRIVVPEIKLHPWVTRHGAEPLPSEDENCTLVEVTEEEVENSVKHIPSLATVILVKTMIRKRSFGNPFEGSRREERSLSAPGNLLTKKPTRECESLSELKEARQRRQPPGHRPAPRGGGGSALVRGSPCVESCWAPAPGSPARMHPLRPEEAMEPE
PIP5K1A (human), sequence (Q99755 whole entry, looked up): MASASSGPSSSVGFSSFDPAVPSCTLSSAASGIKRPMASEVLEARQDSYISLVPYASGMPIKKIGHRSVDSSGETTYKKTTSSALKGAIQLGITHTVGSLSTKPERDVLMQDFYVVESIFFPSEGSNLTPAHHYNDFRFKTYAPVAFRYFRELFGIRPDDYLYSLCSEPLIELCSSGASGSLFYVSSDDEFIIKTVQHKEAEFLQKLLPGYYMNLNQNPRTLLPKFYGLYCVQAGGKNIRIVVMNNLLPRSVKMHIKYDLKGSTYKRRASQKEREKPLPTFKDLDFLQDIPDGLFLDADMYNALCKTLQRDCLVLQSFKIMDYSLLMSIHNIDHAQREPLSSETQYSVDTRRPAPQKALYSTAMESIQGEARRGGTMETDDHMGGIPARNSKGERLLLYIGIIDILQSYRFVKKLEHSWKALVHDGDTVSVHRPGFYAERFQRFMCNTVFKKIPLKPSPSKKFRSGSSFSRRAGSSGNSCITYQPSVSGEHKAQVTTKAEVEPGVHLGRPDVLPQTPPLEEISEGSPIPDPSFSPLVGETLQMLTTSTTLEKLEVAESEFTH
STK17A (human), sequence (Q9UEE5 whole entry, looked up): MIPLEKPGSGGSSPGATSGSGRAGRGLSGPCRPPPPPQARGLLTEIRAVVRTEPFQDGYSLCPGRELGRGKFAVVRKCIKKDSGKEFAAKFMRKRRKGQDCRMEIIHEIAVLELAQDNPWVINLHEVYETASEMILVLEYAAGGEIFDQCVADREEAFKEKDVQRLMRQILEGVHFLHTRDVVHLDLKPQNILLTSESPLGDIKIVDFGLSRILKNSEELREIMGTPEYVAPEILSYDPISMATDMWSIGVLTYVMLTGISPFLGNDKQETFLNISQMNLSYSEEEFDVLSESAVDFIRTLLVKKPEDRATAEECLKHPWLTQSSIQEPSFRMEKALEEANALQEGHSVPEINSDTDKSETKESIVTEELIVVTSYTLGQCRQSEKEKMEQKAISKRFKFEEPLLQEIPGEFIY
STK17B (human), sequence (O94768 whole entry, looked up): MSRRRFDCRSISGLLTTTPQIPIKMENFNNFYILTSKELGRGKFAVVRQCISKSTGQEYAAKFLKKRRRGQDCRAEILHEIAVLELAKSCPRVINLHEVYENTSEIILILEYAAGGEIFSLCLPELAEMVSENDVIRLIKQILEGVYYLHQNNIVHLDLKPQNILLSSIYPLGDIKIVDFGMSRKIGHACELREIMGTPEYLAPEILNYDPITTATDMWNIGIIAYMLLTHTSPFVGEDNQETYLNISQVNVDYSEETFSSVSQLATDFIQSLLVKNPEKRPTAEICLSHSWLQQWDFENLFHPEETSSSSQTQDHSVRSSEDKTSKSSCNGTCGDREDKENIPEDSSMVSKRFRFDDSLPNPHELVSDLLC
PIM1 (human), sequence (P11309 whole entry, looked up): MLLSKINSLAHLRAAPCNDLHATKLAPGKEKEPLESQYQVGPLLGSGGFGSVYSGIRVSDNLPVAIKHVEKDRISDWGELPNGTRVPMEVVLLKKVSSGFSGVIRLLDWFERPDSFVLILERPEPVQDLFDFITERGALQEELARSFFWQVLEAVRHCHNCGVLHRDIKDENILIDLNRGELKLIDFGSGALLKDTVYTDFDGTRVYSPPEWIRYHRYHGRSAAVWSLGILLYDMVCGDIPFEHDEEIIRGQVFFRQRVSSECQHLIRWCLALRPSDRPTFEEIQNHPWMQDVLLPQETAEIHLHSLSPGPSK

Q: What does the source list for `COc1cc(N2CCC(O)CC2)ccc1Nc1ncc2c(n1)N1CCc3cccc(c31)C(=O)N2C`?
A: kinase still bound, per cent of control (MKNK1 (human)): 48%; kinase still bound, per cent of control (STK17B (human)): 100%; kinase still bound, per cent of control [1]: 76%; kinase still bound, per cent of control (CSNK1G3 (human)): 90%; kinase still bound, per cent of control [2]: 73%; kinase still bound, per cent of control (RIOK2 (human)): 100%; kinase still bound, per cent of control (PDGFRB (human)): 87%; kinase still bound, per cent of control (MAP4K2 (human)): 94%; kinase still bound, per cent of control (MYLK4 (human)): 100%; kinase still bound, per cent of control (DAPK2 (human)): 36%; kinase still bound, per cent of control [3]: 70%; kinase still bound, per cent of control [4]: 86%; kinase still bound, per cent of control (PIM1 (human)): 91%; kinase still bound, per cent of control (RPS6KA6 KD2 (human)): 3.2%; kinase still bound, per cent of control (CSNK1D (human)): 60%; kinase still bound, per cent of control (MAP2K3 (human)): 92%; kinase still bound, per cent of control (NEK2 (human)): 62%; kinase still bound, per cent of control (CAMKK1 (human)): 77%; kinase still bound, per cent of control (FLT3 (human)): 95%; kinase still bound, per cent of control (CSNK1G1 (human)): 100%; kinase still bound, per cent of control (ULK2 (human)): 80%; kinase still bound, per cent of control (CLK3 (human)): 100%; kinase still bound, per cent of control (CAMKK2 (human)): 60%; kinase still bound, per cent of control (MYLK3 (human)): 100%; kinase still bound, per cent of control (TTK (human)): 6.1%; kinase still bound, per cent of control (DYRK1B (human)): 54%; kinase still bound, per cent of control (MYLK (human)): 16%; kinase still bound, per cent of control (MAP4K4 (human)): 57%; kinase still bound, per cent of control (PLK4 (human)): 5.4%; kinase still bound, per cent of control (PIM2 (human)): 100%; kinase still bound, per cent of control (RIPK4 (human)): 79%; kinase still bound, per cent of control (STK17A (human)): 100%; kinase still bound, per cent of control (MELK (human)): 78%; kinase still bound, per cent of control (HIPK1 (human)): 73%; kinase still bound, per cent of control (RIPK2 (human)): 100%; kinase still bound, per cent of control [5]: 76%; kinase still bound, per cent of control (PIP5K1A (human)): 91%; kinase still bound, per cent of control (KIT (human)): 91%; kinase still bound, per cent of control (STK16 (human)): 48%; kinase still bound, per cent of control (MAP3K5 (human)): 100%; kinase still bound, per cent of control (ACVR1 (human)): 95%; kinase still bound, per cent of control [6]: 79%

Q: Which results are given for `CN1CCN(c2ccc(C(=O)Nc3ncc4c(n3)N(C)c3ccccc3C(=O)N4C)cc2)CC1`?
A: kinase still bound, per cent of control (MKNK1 (human)): 100%; kinase still bound, per cent of control (STK17B (human)): 100%; kinase still bound, per cent of control [1]: 100%; kinase still bound, per cent of control (CSNK1G3 (human)): 100%; kinase still bound, per cent of control [2]: 100%; kinase still bound, per cent of control (RIOK2 (human)): 85%; kinase still bound, per cent of control (PDGFRB (human)): 80%; kinase still bound, per cent of control (MAP4K2 (human)): 100%; kinase still bound, per cent of control (MYLK4 (human)): 100%; kinase still bound, per cent of control (DAPK2 (human)): 100%; kinase still bound, per cent of control [3]: 100%; kinase still bound, per cent of control [4]: 100%; kinase still bound, per cent of control (PIM1 (human)): 100%; kinase still bound, per cent of control (RPS6KA6 KD2 (human)): 100%; kinase still bound, per cent of control (CSNK1D (human)): 85%; kinase still bound, per cent of control (MAP2K3 (human)): 84%; kinase still bound, per cent of control (NEK2 (human)): 100%; kinase still bound, per cent of control (CAMKK1 (human)): 100%; kinase still bound, per cent of control (FLT3 (human)): 100%; kinase still bound, per cent of control (CSNK1G1 (human)): 100%; kinase still bound, per cent of control (ULK2 (human)): 89%; kinase still bound, per cent of control (CLK3 (human)): 100%; kinase still bound, per cent of control (CAMKK2 (human)): 97%; kinase still bound, per cent of control (MYLK3 (human)): 100%; kinase still bound, per cent of control (TTK (human)): 95%; kinase still bound, per cent of control (DYRK1B (human)): 100%; kinase still bound, per cent of control (MYLK (human)): 92%; kinase still bound, per cent of control (MAP4K4 (human)): 100%; kinase still bound, per cent of control (PLK4 (human)): 84%; kinase still bound, per cent of control (PIM2 (human)): 100%; kinase still bound, per cent of control (RIPK4 (human)): 96%; kinase still bound, per cent of control (STK17A (human)): 100%; kinase still bound, per cent of control (MELK (human)): 99%; kinase still bound, per cent of control (HIPK1 (human)): 100%; kinase still bound, per cent of control (RIPK2 (human)): 100%; kinase still bound, per cent of control [5]: 95%; kinase still bound, per cent of control (PIP5K1A (human)): 99%; kinase still bound, per cent of control (KIT (human)): 74%; kinase still bound, per cent of control (STK16 (human)): 85%; kinase still bound, per cent of control (MAP3K5 (human)): 94%; kinase still bound, per cent of control (ACVR1 (human)): 91%; kinase still bound, per cent of control [6]: 75%
